The values that follow come from ChEMBL document CHEMBL4837220, “Development of tricyclic N-benzyl-4-hydroxybutanamide derivatives as inhibitors of GABA transporters mGAT1-4 with anticonvulsant, antinociceptive, and antidepressant activity” (Eur J Med Chem, 2021).

The source made the active and inactive calls.

Assay [1] concerns the target T1, GABA transporter 4 (Mus musculus, UniProt P31650).
T1 sequence (P31650 whole entry): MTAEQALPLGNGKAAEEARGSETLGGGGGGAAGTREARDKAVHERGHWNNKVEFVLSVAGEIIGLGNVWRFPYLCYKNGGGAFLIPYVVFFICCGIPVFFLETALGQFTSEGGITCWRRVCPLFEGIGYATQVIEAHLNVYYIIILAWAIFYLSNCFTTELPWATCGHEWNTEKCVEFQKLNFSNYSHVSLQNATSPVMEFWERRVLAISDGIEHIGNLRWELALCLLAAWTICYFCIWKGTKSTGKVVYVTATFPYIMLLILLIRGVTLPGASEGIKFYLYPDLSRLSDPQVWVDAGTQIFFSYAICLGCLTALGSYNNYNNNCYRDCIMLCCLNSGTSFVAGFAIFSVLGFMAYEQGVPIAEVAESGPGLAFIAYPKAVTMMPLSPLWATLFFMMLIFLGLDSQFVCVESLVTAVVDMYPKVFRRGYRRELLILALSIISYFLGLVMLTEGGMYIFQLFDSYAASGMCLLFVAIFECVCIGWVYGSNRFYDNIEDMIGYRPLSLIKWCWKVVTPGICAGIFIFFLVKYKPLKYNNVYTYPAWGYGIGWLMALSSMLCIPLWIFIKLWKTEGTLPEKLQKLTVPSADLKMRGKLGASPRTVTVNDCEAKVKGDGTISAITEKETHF
Briefly: Inhibition of mouse GAT4 expressed in human HEK293 cell line assessed as inhibition of [3H]GABA uptake measured after 40 mins by […]. Type of assay: cell-based.

The target in assay [2] is Sodium- and chloride-dependent GABA transporter 1 (Mus musculus) (UniProt P31648). The experiment in a line: Residual NO711 binding to mouse GAT1 expressed in human HEK293 cell line at 100 uM by MS binding assay relative to control.
Assay [3] concerns the target T2, GABA transporter 2 (Mus musculus, UniProt P31651).
T2 sequence (P31651 whole entry): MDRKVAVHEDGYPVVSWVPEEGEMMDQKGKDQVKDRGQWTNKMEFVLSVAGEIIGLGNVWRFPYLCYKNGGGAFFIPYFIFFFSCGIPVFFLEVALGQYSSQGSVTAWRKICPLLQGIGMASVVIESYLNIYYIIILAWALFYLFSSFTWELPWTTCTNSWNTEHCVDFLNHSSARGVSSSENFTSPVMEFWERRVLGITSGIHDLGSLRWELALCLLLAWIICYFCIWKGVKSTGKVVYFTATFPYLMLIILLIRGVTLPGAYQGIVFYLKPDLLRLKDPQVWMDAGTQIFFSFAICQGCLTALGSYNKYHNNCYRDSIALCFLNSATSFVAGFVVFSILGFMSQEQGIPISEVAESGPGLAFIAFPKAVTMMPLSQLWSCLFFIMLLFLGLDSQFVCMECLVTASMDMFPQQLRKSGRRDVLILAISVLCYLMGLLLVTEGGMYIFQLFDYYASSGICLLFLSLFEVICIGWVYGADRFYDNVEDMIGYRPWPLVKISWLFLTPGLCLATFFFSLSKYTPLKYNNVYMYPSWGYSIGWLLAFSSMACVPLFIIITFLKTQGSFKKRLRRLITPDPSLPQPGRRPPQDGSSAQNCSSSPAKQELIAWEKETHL
The experiment in a line: Inhibition of mouse GAT2 expressed in human HEK293 cell line assessed as inhibition of [3H]GABA uptake measured after 40 mins by […]. It counts as cell-based.

Assay [4] addresses T3, Sodium- and chloride-dependent GABA transporter 1 (Mus musculus, UniProt P31648). Briefly: Inhibition of mouse GAT1 expressed in human HEK293 cell line assessed as inhibition of [3H]GABA uptake measured after 40 mins by […]. It counts as cell-based.
For assay [5], the target named is T4, GABA transporter 2 (Mus musculus) (UniProt P31651).
T4 sequence (whole entry): T2 sequence (P31651 whole entry)
Briefly: Inhibition of mouse GAT2 expressed in human HEK293 cell line assessed as residual [3H]GABA uptake at 100 uM measured after 40 mins by […].

For assay [6], the target named is T3, Sodium- and chloride-dependent GABA transporter 1. The experiment in a line: Inhibition of NO711 binding to mouse GAT1 expressed in human HEK293 cell line by MS binding assay.
The target in assay [7] is GABA transporter 3 (Mus musculus, Slc6a13). The experiment in a line: Inhibition of mouse GAT3 expressed in human HEK293 cell line assessed as inhibition of [3H]GABA uptake measured after 40 mins by […].
Assay [8] concerns Mus musculus. The experiment in a line: Anticonvulsant activity in CD-1 mouse assessed as elevation of seizure threshold at 10 mg/kg, ip measured by electroconvulsive threshold test relative to control. It counts as functional, organism-based.

With `CN(CCC=C1c2ccccc2CCc2ccccc21)C(CCO)C(=O)NCc1ccccc1` (centres undefined), the values for the IC50 in assay [1], in assay [3] and in assay [4] were 17 µM, 9.12 µM and 20 µM, respectively. Besides, the residual activity (usually the signal under treatment as a percentage of the control signal) in assay [2] is 51%.

Consider `CC(=O)NCCC(C(=O)NCc1ccc(C)cc1)N(C)CCC=C1c2ccccc2CCc2ccccc21` (centres undefined), for which the IC50 – broadly, the concentration that gives 50% inhibition – in assay [1] is 13.5 µM; in assay [3], 15.5 µM; in assay [4], 13.8 µM. Besides, the residual activity in assay [2] came to 69%.

With `COc1ccc(C(OCCN2CCC[C@H](C(=O)O)C2)(c2ccc(OC)cc2)c2ccc(-c3ccc(C=O)cc3)cc2)cc1`, the values for the IC50 in assay [1] and in assay [4] were 1.29 µM and 72.4 µM, respectively. In addition, the residual activity in assay [5] was 73%; in assay [2] it was 77%.

`CN(CCC=C1c2ccccc2C=Cc2ccccc21)C(CCO)C(=O)NCc1ccc(Cl)cc1` (centres undefined): the figures for the IC50 in assay [1], in assay [3] and in assay [4] were 15.8 µM, 14.5 µM and 69.2 µM, respectively. For the same molecule, in assay [2], the residual activity was determined as 63%.

`CN(CCC=C(c1ccccc1)c1ccccc1)C(CCN)C(=O)NCc1ccccc1Cl` (centres undefined): in assay [6], the pKi (commonly the negative decadic logarithm of the Ki, by convention in mol/L) was 4.96.

Consider `CN(CCC=C1c2ccccc2C=Cc2ccccc21)C(CCO)C(=O)NCc1ccccc1Cl` (centres undefined), for which the values for the IC50 in assay [1], in assay [3] and in assay [4] were 9.55 µM, 6.76 µM and 20.9 µM, respectively. In addition, in assay [2], the residual activity came out at 69%.

With `CN(CCC=C1c2ccccc2CCc2ccccc21)C(CCO)C(=O)NCc1ccc(F)cc1` (centres undefined), the IC50 in assay [1] is 13.2 µM; in assay [3], 5.75 µM; in assay [4] it was 21.9 µM. Also, the residual activity in assay [2] was 81%.

Turning to `CN(CCC=C1c2ccccc2CCc2ccccc21)C(CCO)C(=O)NCc1ccccc1Cl` (centres undefined), the IC50 in assay [1] is 15.8 µM; in assay [3] it was 11 µM; in assay [4] it was 25.1 µM. In assay [2], the residual activity stood at 82%.

Consider `CC(=O)NCCC(C(=O)NCc1ccc(F)cc1)N(C)CCC=C1c2ccccc2CCc2ccccc21` (centres undefined), for which the IC50 in assay [1] was 11.2 µM; in assay [3], 19.5 µM; in assay [4], 13.8 µM. In assay [2], this molecule displayed a residual activity of 71%.

Take `CN(CCC=C1c2ccccc2-c2ccccc21)C(CCO)C(=O)NCc1ccc(F)cc1` (centres undefined): the IC50 in assay [1] was 35.5 µM; in assay [3] it was 25.7 µM; in assay [4], 37.2 µM. Further, the residual activity in assay [2] came to 90%.

Turning to `Cc1ccc(CNC(=O)C(CCO)N(C)CCC=C2c3ccccc3C=Cc3ccccc32)cc1` (centres undefined), the IC50 is 9.12 µM in assay [1], 9.77 µM in assay [3] and 27.5 µM in assay [4]. Moreover, in assay [2], the residual activity was determined as 55%.

In the case of `Cc1ccc(CNC(=O)C(CCO)N(C)CCC=C2c3ccccc3-c3ccccc32)cc1` (centres undefined), the IC50 is 30.9 µM in assay [1], 30.2 µM in assay [3] and 31.6 µM in assay [4]. This molecule also registered a residual activity in assay [2] of 99%.

Regarding `CN(CCC=C1c2ccccc2CCc2ccccc21)C(CCN)C(=O)NCc1ccc(F)cc1` (centres undefined), the IC50 was 4.37 µM in assay [1], 11.7 µM in assay [3] and 6.31 µM in assay [4]. Besides, the negative-log Ki (pKi) in assay [6] worked out at 4.96.

Consider `CN(CCC=C1c2ccccc2CCc2ccccc21)C(CCN)C(=O)NCc1ccccc1` (centres undefined), for which the figures for the IC50 in assay [1], in assay [3] and in assay [4] were 4.68 µM, 9.55 µM and 8.13 µM, respectively. The same molecule came in with a pKi in assay [6] of 4.78.

For `O=C(O)[C@@H]1CCCN(CCC=C2c3ccccc3-c3ccccc32)C1`, the IC50 in assay [4] was 2 µM.

Consider `CC(=O)NCCC(C(=O)NCc1ccccc1)N(C)CCC=C1c2ccccc2CCc2ccccc21` (centres undefined), for which the IC50 in assay [1] was 17.8 µM; in assay [3], 37.2 µM; in assay [4], 28.8 µM. For the same molecule, in assay [2], the residual activity came out at 77%.

Regarding `CN(CCC=C1c2ccccc2CCc2ccccc21)C(CCN)C(=O)NCc1ccc(Cl)cc1` (centres undefined), the IC50 in assay [1] is 5.62 µM; in assay [3], 11 µM; in assay [4], 6.31 µM. In addition, the negative-log Ki (pKi) in assay [6] is 4.6.

Regarding `CC(=O)NCCC(C(=O)NCc1ccccc1Cl)N(C)CCC=C1c2ccccc2CCc2ccccc21` (centres undefined), the IC50 in assay [1] was 18.6 µM; in assay [3], 26.3 µM; in assay [4], 28.8 µM. Further, the residual activity in assay [2] was 87%.

For `CN(CCC=C1c2ccccc2-c2ccccc21)C(CCO)C(=O)NCc1ccccc1Cl` (centres undefined), the IC50 in assay [1] is 26.9 µM; in assay [3], 25.7 µM; in assay [4], 33.1 µM. Further, in assay [2], the residual activity worked out at 93%.

As to `Cc1ccc(CNC(=O)C(CCN)N(C)CCC=C2c3ccccc3CCc3ccccc32)cc1` (centres undefined), the half-maximal inhibitory concentration (IC50) in assay [1] is 6.46 µM; in assay [3], 11.2 µM; in assay [4], 7.24 µM. This molecule came in with a pKi in assay [6] of 5.14.

In the case of `CN(CCC=C(c1ccccc1)c1ccccc1)C(CCO)C(=O)NCc1ccccc1Cl` (centres undefined), the IC50 in assay [1] is 10 µM; in assay [3], 12.6 µM. The residual activity in assay [2] worked out at 54%. In assay [7], the pIC50 (as a rule, −log10 of the IC50, conventionally taken in molar units) is given as 5.14.

As to `CC(=O)NCCC(C(=O)NCc1ccc(Cl)cc1)N(C)CCC=C1c2ccccc2CCc2ccccc21` (centres undefined), the figures for the IC50 in assay [1], in assay [3] and in assay [4] were 12.6 µM, 47.9 µM and 28.2 µM, respectively. This molecule also had a residual activity in assay [2] of 90%.

For `CN(CCC=C1c2ccccc2CCc2ccccc21)C(CCO)C(=O)NCc1ccc(Cl)cc1` (centres undefined), the results for the IC50 in assay [1], in assay [3] and in assay [4] were 15.8 µM, 7.76 µM and 10 µM, respectively. The residual activity in assay [2] is 79%.

As for `O=C(O)C1CCCN(CCC=C2c3ccccc3CCc3ccccc32)C1` (centres undefined), the IC50 in assay [4] was 13.5 µM.

Regarding `CN(CCC=C1c2ccccc2-c2ccccc21)C(CCO)C(=O)NCc1ccc(Cl)cc1` (centres undefined), the IC50 is 44.7 µM in assay [1], 32.4 µM in assay [3] and 42.7 µM in assay [4]. The molecule further came in with a residual activity in assay [2] of 91%.

On to `CC(=O)NCCC(C(=O)NCc1ccccc1Cl)N(C)CCC=C(c1sccc1C)c1sccc1C` (centres undefined), for which the pIC50 in assay [7] amounted to 5.61. Besides, the IC50 in assay [3] was 4.47 µM.

`O=C(O)C1=CCCN(CCO/N=C/c2ccccc2-c2ccc(Cl)cc2Cl)C1`: the result in assay [8] was inactive. For the same molecule, the pIC50 in assay [7] was found to be 4.35. Also, in assay [3], the IC50 is 49 µM. In assay [6], the pKi was 8.29.

For the molecule `CN(CCC=C1c2ccccc2C=Cc2ccccc21)C(CCO)C(=O)NCc1ccc(F)cc1` (centres undefined), the IC50 was 13.5 µM in assay [1], 10.2 µM in assay [3] and 21.9 µM in assay [4]. The molecule further displayed a residual activity in assay [2] of 71%.

As to `CN(CCC=C1c2ccccc2-c2ccccc21)C(CCO)C(=O)NCc1ccccc1` (centres undefined), the figures for the IC50 in assay [1], in assay [3] and in assay [4] were 25.1 µM, 17.8 µM and 24 µM, respectively. In addition, the residual activity in assay [2] worked out at 75%.

Turning to `CN(CCC=C1c2ccccc2CCc2ccccc21)C(CCN)C(=O)NCc1ccccc1Cl` (centres undefined), the concentration for half-maximal inhibition (IC50) in assay [1] is 4.9 µM; in assay [3], 13.5 µM; in assay [4], 6.61 µM. Besides, the pKi in assay [6] came to 4.87.
